# Measured values as given in ChEMBL document CHEMBL5137095, “N-Benzyl Benzamide Derivatives as Selective Sub-Nanomolar Butyrylcholinesterase Inhibitors for Possible Treatment in Advanced Alzheimer's Disease” (J Med Chem, 2022).
# pIC50, pKd, pKi: −log10 of the molar value.
# What was measured:
# SH-SY5Y = assay: Cytotoxicity against human SH-SY5Y cells assessed as reduction in cell viability at 10 uM by MTT assay; format: toxicity, cell-based
# PC-12 [1] = assay: Cytotoxicity against rat PC-12 cells assessed as reduction in cell viability at 10 uM by MTT assay; format: toxicity, cell-based; settings: pc-12, 10 µM
# [2] = Cytotoxicity against mouse BV-2 cells assessed as cell survival rate at 10 uM by MTT assay; format: toxicity, cell-based; settings: read-out: Activity
# [3] = Cytotoxicity against mouse HT-22 cells assessed as cell survival rate at 10 uM by MTT assay; format: toxicity, cell-based; settings: read-out: Activity
# [4] = Cytotoxicity against human SH-SY5Y cells assessed as cell survival rate at 10 uM by MTT assay; format: toxicity, cell-based; settings: read-out: Activity
# Cholinesterase [5] = target: T1, Cholinesterase (Homo sapiens, UniProt P06276); assay: Inhibition of human BChE using acetylthiocholine iodide or butyrylthiocholine iodide as substrate preincubated for 5 mins followed by substrate addition by Ellman's method
# HT-22 = assay: Cytotoxicity against mouse HT-22 cells assessed as reduction in cell viability at 10 uM by MTT assay; format: toxicity, cell-based; settings: ht-22, 10 µM
# Cholinesterase [6] = target: Cholinesterase (Equus caballus, UniProt P81908); assay: Inhibition of horse serum BChE using acetylthiocholine iodide or butyrylthiocholine iodide as substrate preincubated for 5 mins followed by substrate addition by Ellman's method
# [7] = Cytotoxicity against rat PC-12 cells assessed as cell survival rate at 10 uM by MTT assay; format: toxicity, cell-based; settings: read-out: Activity
# BV-2 = assay: Cytotoxicity against mouse BV-2 cells assessed as reduction in cell viability at 10 uM by MTT assay; format: toxicity, cell-based; settings: bv-2, 10 µM
# [8] = n-octanol-water partition coefficient, log P of the compound by HPLC analysis; format: physicochemical
# [9] = Permeability of compound incubated for 18 hrs by PAMPA-BBB assay; format: ADME; settings: read-out: permeability
# Cholinesterase [10] = target: T1, Cholinesterase; assay: Inhibition of human BChE assessed as inhibition constant
# PC-12 [11] = assay: Neuroprotective activity against H2O2-induced cell damage in rat PC-12 cells assessed as survival rate at 5 to 10 uM pretreated for 2 hrs followed by H2O2 addition and measured after 24 hrs by MTT assay; format: functional; settings: dose 5-10 µM, time 26 hrs
# [12] = Inhibition of human BChE assessed as inhibition constant
# [13] = Acute toxicity in ICR mouse assessed as effect on consumption of water and food at 1000 mg/kg, po measured after 14 days; format: organism-based; settings: in vivo, 336 h, time 14 day
# [14] = Acute toxicity in ICR mouse assessed as increase in body weight at 1000 mg/kg, po measured after 14 days; format: organism-based; settings: in vivo, 336 h, time 14 day
# [15] = Acute toxicity in ICR mouse assessed as abnormal behavior at 1000 mg/kg, po measured after 4 hrs; format: organism-based; settings: in vivo
# Cholinesterase [16] = target: T1, Cholinesterase; assay: Binding affinity to human BChE assessed as dissociation constant by surface plasmon resonance assay
# T1 sequence (P06276 whole entry): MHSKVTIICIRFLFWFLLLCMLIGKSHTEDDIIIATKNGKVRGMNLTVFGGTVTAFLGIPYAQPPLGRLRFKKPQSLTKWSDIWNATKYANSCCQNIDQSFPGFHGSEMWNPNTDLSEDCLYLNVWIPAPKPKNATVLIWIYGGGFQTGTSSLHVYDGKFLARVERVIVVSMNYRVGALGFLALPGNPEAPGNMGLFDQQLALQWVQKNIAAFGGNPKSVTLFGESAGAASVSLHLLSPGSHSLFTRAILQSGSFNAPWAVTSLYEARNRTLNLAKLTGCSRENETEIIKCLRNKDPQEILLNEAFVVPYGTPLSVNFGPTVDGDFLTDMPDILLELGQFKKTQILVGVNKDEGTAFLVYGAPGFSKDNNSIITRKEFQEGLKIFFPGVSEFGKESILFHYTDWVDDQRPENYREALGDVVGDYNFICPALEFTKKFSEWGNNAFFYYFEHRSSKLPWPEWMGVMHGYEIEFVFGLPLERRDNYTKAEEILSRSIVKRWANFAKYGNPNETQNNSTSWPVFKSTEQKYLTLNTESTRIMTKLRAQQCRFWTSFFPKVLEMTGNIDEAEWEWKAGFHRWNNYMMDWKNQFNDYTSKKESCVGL
# Sequence of Cholinesterase (Equus caballus, UniProt P81908) (P81908 whole entry): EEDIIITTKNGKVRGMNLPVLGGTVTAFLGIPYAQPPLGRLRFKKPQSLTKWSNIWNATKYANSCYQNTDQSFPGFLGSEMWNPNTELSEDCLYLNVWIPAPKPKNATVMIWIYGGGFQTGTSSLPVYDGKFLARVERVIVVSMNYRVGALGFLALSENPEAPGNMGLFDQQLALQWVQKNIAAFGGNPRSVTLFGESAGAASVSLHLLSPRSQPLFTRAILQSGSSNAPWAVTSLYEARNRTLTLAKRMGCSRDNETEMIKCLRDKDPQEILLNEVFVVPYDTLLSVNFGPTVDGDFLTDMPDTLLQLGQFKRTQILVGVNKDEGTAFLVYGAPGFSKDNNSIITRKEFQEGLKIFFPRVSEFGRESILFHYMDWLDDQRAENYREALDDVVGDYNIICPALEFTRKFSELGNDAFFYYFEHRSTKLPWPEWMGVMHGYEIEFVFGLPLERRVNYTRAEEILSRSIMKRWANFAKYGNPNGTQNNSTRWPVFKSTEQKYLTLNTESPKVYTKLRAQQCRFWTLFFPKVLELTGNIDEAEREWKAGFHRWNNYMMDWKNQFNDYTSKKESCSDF
smiles,measurement,setting,value
CCN(CC)Cc1ccccc1CNC(=O)c1cc(NC(=O)c2ccc(F)cc2)cc([N+](=O)[O-])c1,Activity,SH-SY5Y,Non-Toxic
same,Activity,PC-12 [1],Non-Toxic
same,viability at 10 µM,[2],> 70%
same,viability at 10 µM,[3],> 70%
same,viability at 10 µM,[4],> 70%
same,pIC50,Cholinesterase [5],8.98
same,Activity,HT-22,Non-Toxic
same,pIC50,Cholinesterase [6],8.90
same,viability at 10 µM,[7],> 70%
same,Activity,BV-2,Non-Toxic
CCN(CC)Cc1ccccc1CNC(=O)c1cc(F)cc(NC(=O)c2ccc(F)cc2)c1,logP,[8],1.36
same,pIC50,Cholinesterase [5],9.21
same,pIC50,Cholinesterase [6],9.26
CCN(CC)Cc1ccccc1CNC(=O)c1cccc(NC(=O)c2cccc(F)c2)c1,pIC50,Cholinesterase [5],8.51
CCN(CC)Cc1cccc(CNC(=O)c2cccc(NC(=O)c3cccs3)c2)c1,pIC50,Cholinesterase [5],4.31
same,pIC50,Cholinesterase [6],4.26
CCN(CC)Cc1ccccc1CNC(=O)c1ccc(C)c(NC(=O)c2ccc(F)cc2)c1,pIC50,Cholinesterase [5],6.87
same,pIC50,Cholinesterase [6],9.42
CCN(CC)Cc1ccccc1CNC(=O)c1cc(Cl)cc(NC(=O)c2ccc(F)cc2)c1,logP,[8],1.11
same,Activity,SH-SY5Y,Non-Toxic
same,Activity,PC-12 [1],Non-Toxic
same,viability at 10 µM,[2],> 70%
same,viability at 10 µM,[3],> 70%
same,viability at 10 µM,[4],> 70%
same,pIC50,Cholinesterase [5],9.66
same,Activity,HT-22,Non-Toxic
same,Papp at 18 h,[9],7.54 ×10⁻⁶ cm/s
same,pIC50,Cholinesterase [6],9.80
same,viability at 10 µM,[7],> 70%
same,Activity,BV-2,Non-Toxic
CCN(CC)Cc1ccccc1CNC(=O)c1cc(NC(=O)c2ccc(F)cc2)ccc1C,Activity,SH-SY5Y,Non-Toxic
same,Activity,PC-12 [1],Non-Toxic
same,viability at 10 µM,[2],> 70%
same,viability at 10 µM,[3],> 70%
same,viability at 10 µM,[4],> 70%
same,pIC50,Cholinesterase [5],8.57
same,Activity,HT-22,Non-Toxic
same,pIC50,Cholinesterase [6],8.87
same,viability at 10 µM,[7],> 70%
same,Activity,BV-2,Non-Toxic
CCN(CC)Cc1ccccc1CNC(=O)c1ccccc1NC(=O)c1ccc(F)cc1,pIC50,Cholinesterase [5],6.94
same,pIC50,Cholinesterase [6],6.73
CCN(CC)Cc1ccccc1CNC(=O)c1cccc(NC(=O)C2CCCCC2)c1,pIC50,Cholinesterase [5],8.43
same,pIC50,Cholinesterase [6],8.10
CCN(CC)Cc1ccccc1CNC(=O)c1cc(NC(=O)c2ccc(F)cc2)ccc1Br,pIC50,Cholinesterase [5],7.79
same,pIC50,Cholinesterase [6],8.45
Cc1ccc2c(c1)sc(-c1ccc(N(C)C)cc1)[n+]2C [THIOFLAVIN T],pKi,Cholinesterase [10],6.10
CCCN(CCC)Cc1ccccc1CNC(=O)c1cccc(NC(=O)c2cccs2)c1,logP,[8],1.02
same,Activity,SH-SY5Y,Non-Toxic
same,Activity,PC-12 [1],Non-Toxic
same,viability at 10 µM,[2],> 70%
same,viability at 10 µM,[3],> 70%
same,viability at 10 µM,[4],> 70%
same,pIC50,Cholinesterase [5],9.17
same,Activity,HT-22,Non-Toxic
same,Papp at 18 h,[9],8.69 ×10⁻⁶ cm/s
same,viability at 10 µM,[7],> 70%
same,Activity,BV-2,Non-Toxic
same,Activity,PC-12 [11],61.7%
CCN(CC)Cc1ccccc1CNC(=O)c1cccc(NC(=O)c2ccc(C)cc2)c1,Activity,SH-SY5Y,Non-Toxic
same,Activity,PC-12 [1],Non-Toxic
same,viability at 10 µM,[2],> 70%
same,viability at 10 µM,[3],> 70%
same,viability at 10 µM,[4],> 70%
same,pIC50,Cholinesterase [5],7.35
same,Activity,HT-22,Non-Toxic
same,pIC50,Cholinesterase [6],7.11
same,viability at 10 µM,[7],> 70%
same,Activity,BV-2,Non-Toxic
O=C(NCc1ccccc1)c1cccc(NC(=O)c2cccs2)c1,pIC50,Cholinesterase [5],4.50
same,pIC50,Cholinesterase [6],4.01
CCN(CC)Cc1ccccc1CNC(=O)c1cccc(NC(=O)c2cccs2)c1,logP,[8],2.11
same,Activity,SH-SY5Y,Non-Toxic
same,Activity,PC-12 [1],Non-Toxic
same,viability at 10 µM,[2],> 70%
same,viability at 10 µM,[3],> 70%
same,viability at 10 µM,[4],> 70%
same,pIC50,Cholinesterase [5],9.46
same,Activity,HT-22,Non-Toxic
same,Papp at 18 h,[9],19 ×10⁻⁶ cm/s
same,viability at 10 µM,[7],> 70%
same,Activity,BV-2,Non-Toxic
CCN(CC)Cc1ccccc1CNC(=O)c1cccc(NC(=O)c2ccc(Br)cc2)c1,logP,[8],2.73
same,pIC50,Cholinesterase [5],9.89
same,pIC50,Cholinesterase [6],10.06
CCN(CC)Cc1ccccc1CNC(=O)c1cccc(NC(=O)c2ccc(F)cc2)c1Br,pIC50,Cholinesterase [5],5.74
same,pIC50,Cholinesterase [6],7.84
CCN(CC)C(C)CN1c2ccccc2Sc2ccccc21 (stereo not given) [ETHOPROPAZINE],pKi,[12],7.70
CCN(CC)Cc1ccccc1CNC(=O)c1cccc(NC(=O)c2ccccc2)c1,pIC50,Cholinesterase [6],9.02
CCN(CC)Cc1ccccc1CNC(=O)c1cccc(C(=O)Nc2cccs2)c1,pIC50,Cholinesterase [5],7.89
same,pIC50,Cholinesterase [6],8.92
CCN(CC)Cc1ccccc1CNC(=O)c1cc(C)cc(NC(=O)c2ccc(F)cc2)c1,logP,[8],1.26
same,Activity,[13],Non-Toxic
same,pIC50,Cholinesterase [5],10.41
same,pKi,Cholinesterase [10],10.03
same,Papp at 18 h,[9],9.17 ×10⁻⁶ cm/s
same,Activity,[14],Non-Toxic
same,pIC50,Cholinesterase [6],10.68
same,Activity,[15],Non-Toxic
same,pKd,Cholinesterase [16],10.19
